As a reminder, the Ki is a measure of affinity in units of concentration, obtained from inhibition or displacement. The AC50 is the concentration at which the activity in the assay is half-maximal.

Like-named read-outs stand apart in the source and are kept apart here.

Here are results for 20 compounds from US20240239812A1, “MACROCYCLIC 2-ALLYLTETRAHYDROFURANS AS INHIBITORS OF MCL-1” (JANSSEN PHARMACEUTICA NV, priority 2021, published 2024).

The target in assay [1] is Myeloid Cell Leukemia 1 (Mcl-1) (Homo sapiens (Human), UniProt Q07820). The experiment in a line: Terbium labeled Mcl-1 HTRF binding assay, displacement of Cy5-labeled BIM BH3 peptide. The settings on record: 25 pM Tb-Mcl-1, 8 nM Cy5 Bim peptide, 60 minutes at room temperature, read-out: Tb-MCL1 Ki. As to the method: Terbium labeled Myeloid Cell Leukemia 1 (Mcl-1) homogeneous time-resolved fluorescence (HTRF) binding assay utilizing the BIM BH3 peptide (H2N—(C/Cy5Mal) WIAQELRRIGDEFN-OH) as the binding partner for Mcl-1.
Chain of Myeloid Cell Leukemia 1 (Mcl-1) (Q07820 whole entry, the tested form may be a part): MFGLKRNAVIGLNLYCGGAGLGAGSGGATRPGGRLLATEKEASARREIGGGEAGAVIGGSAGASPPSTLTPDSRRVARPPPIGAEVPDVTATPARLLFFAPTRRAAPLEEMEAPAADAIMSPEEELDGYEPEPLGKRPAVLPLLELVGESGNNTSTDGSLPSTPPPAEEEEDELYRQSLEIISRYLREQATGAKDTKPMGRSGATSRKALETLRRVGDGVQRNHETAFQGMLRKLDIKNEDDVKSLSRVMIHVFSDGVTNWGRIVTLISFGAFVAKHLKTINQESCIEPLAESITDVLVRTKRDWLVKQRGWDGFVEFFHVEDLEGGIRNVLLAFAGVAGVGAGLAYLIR
This assay evaluated inhibition of the BH3 domain: Mcl-1 interaction by measuring the displacement of Cy5-labeled BIM BH3 peptide (H2N—(C/Cy5Mal) WIAQELRRIGDEFN-OH) in the HTRF assay format.
The following assay and stock buffers were prepared for use in the assay: (a) Stock buffer: 10 mM Tris-HCl, pH=7.5+150 mM NaCl, filtered, sterilized, and stored at 4° C.; and (b) 1× assay buffer, where the following ingredients were added fresh to stock buffer: 2 mM dithiothreitol (DTT), 0.0025% Tween-20, 0.1 mg/mL bovine serum albumin (BSA). The 1×Tb-Mcl-1+Cy5 Bim peptide solution was prepared by diluting the protein stock solution using the 1× assay buffer (b) to 25 pM Tb-Mcl-1 and 8 nM Cy5 Bim peptide.
Using the Acoustic ECHO, 100 nL of 100× test compound(s) were dispensed into individual wells of a white 384-well Perkin Elmer Proxiplate, for a final compound concentration of 1× and final DMSO concentration of 1%. Inhibitor control and neutral control (NC, 100 nL of 100% DMSO) were stamped into columns 23 and 24 of assay plate, respectively. Into each well of the plate was then dispensed 10 μL of the 1×Tb-Mcl-1+Cy5 Bim peptide solution. The plate was centrifuged with a cover plate at 1000 rpm for 1 minute, then incubated for 60 minutes at room temperature with plates covered.
The TR-FRET signal was read on an BMG PHERAStar FSX MicroPlate Reader at room temperature using the HTRF optic module (HTRF: excitation: 337 nm, light source: laser, emission A: 665 nm, emission B: 620 nm, integration start: 60 μs, integration time: 400 μs).
The BMG PHERAStar FSX MicroPlate Reader was used to measure fluorescence intensity at two emission wavelengths—665 nm and 620 nm—and report relative fluorescence units (RFU) for both emissions, as well as a ratio of the emissions (665 nm/620 nm)*10,000. The RFU values were normalized to percent inhibition as follows:
% inhibition(((NC−IC)−(compound−IC))/(NC−IC))*100
where IC (inhibitor control, low signal)=mean signal of 1× Tb-MCl-1+Cy5 Bim peptide+inhibitor control or 100% inhibition of Mcl-1; NC (neutral control, high signal)=mean signal 1×Tb-MCl-1+Cy5 Bim peptide with DMSO only or 0% inhibition
An 11-point dose response curve was generated to determine IC50 values (using GenData) based on the following equation:
where Y=% inhibition in the presence of X inhibitor concentration; Top=100% inhibition derived from the IC (mean signal of Mcl-1+inhibitor control); Bottom=0% inhibition derived from the NC (mean signal of Mcl-1+DMSO); Hillslope=Hill coefficient; and IC50=concentration of compound with 50% inhibition in relation to top/neutral control (NC).
Representative compounds of the present invention were tested according to the procedure as described above, with results as listed in the Table below (n.d. means not determined).
A general note: Time-resolved FRET reads energy transfer from a long-lived donor to a nearby acceptor.

Assay [2] has as its system MOLP-8 human multiple myeloma cell line. Description: Caspase-Glo 3/7 apoptosis induction assay in MOLP-8 cells. As to conditions: caspase-3/7 activity, 2 hours at 37° C., averaged over all runs on all batches, read-out: MOLP8 AC50. It is filed as cell-based. An excerpt: MCL-1 is a regulator of apoptosis and is highly over-expressed in tumor cells that escape cell death. The assay evaluates the cellular potency of small-molecule compounds targeting regulators of the apoptosis pathway, primarily MCL-1, Bfl-1, Bcl-2, and other proteins of the Bcl-2 family. Protein-protein inhibitors disrupting the interaction of anti-apoptotic regulators with BH3-domain proteins initiate apoptosis.
The Caspase-Glo® 3/7 Assay is a luminescent assay that measures caspase-3 and -7 activities in purified enzyme preparations or cultures of adherent or suspension cells. The assay provides a proluminescent caspase-3/7 substrate, which contains the tetrapeptide sequence DEVD. This substrate is cleaved to release aminoluciferin, a substrate of luciferase used in the production of light. Addition of the single Caspase-Glo® 3/7 Reagent in an “add-mix-measure” format results in cell lysis, followed by caspase cleavage of the substrate and generation of a “glow-type” luminescent signal.
This assay uses the MOLP-8 human multiple myeloma cell line, which is sensitive to MCL-1 inhibition.
Cell cultures were maintained between 0.2 and 2.0×10^6 cells/mL. The cells were harvested by collection in 50 mL conical tubes. The cells were then pelleted at 500 g for 5 mins before removing supernatant and resuspension in fresh pre-warmed culture medium. The cells were counted and diluted as needed.
The assay reagent was prepared by transferring the buffer solution to the substrate vial and mixing. The solution may be stored for up to 1 week at 4° C. with negligible loss of signal.
Compounds were delivered in assay-ready plates (Proxiplate) and stored at −20° C.
Assays always include 1 reference compound plate containing reference compounds. The plates were spotted with 40 nL of compounds (0.5% DMSO final in cells; serial dilution; 30 μM highest conc. 1/3 dilution, 10 doses, duplicates). The compounds were used at room temperature and 4 μL of pre-warmed media was added to all wells except column 2 and 23. The negative control was prepared by adding 1% DMSO in media. The positive control was prepared by adding the appropriate positive control compound in final concentration of 60 μM in media. The plate was prepared by adding 4 μL negative control to column 23, 4 μL positive control to column 2, and 4 μL cell suspension to all wells in the plate. The plate with cells was then incubated at 37° C. for 2 hours. The assay signal reagent is the Caspase-Glo solution described above, and 8 μL was added to all wells. The plates were then sealed and measured after 30 minutes.
The activity of a test compound was calculated as percent change in apoptosis induction as follows: […]

On to `C[C@@H]1[C@@H](C)C/C=C(\F)C(OCCN2CCOCC2)[C@@H]2OCC[C@H]2CN2C[C@@]3(CCCc4cc(Cl)ccc43)COc3ccc(cc32)C(=O)NS1(=O)=O` (single isomer, unassigned) [Compound 4], for which, in assay [1], the Ki amounted to 0.192 nM. Also, in assay [2], the AC50 was found to be 314 nM.
With `C[C@@H]1[C@@H](C)C/C=C(\F)C(OCCN2CCOCC2)[C@@H]2OCC[C@H]2CN2C[C@@]3(CCCc4cc(Cl)ccc43)COc3ccc(cc32)C(=O)NS1(=O)=O` (single isomer, unassigned) [Compound 5], the Ki in assay [1] was determined as 0.445 nM. Also, the half-maximal activity concentration (AC50) in assay [2] was 1100 nM.
With `COc1nn(C)cc1C(=O)NS1(=O)=NC(=O)c2ccc3c(c2)N(C[C@@H]2CCO[C@H]2C(OC)/C=C/C[C@H](C)C1)C[C@@]1(CCCc2cc(Cl)ccc21)CO3` (single isomer, unassigned) [Compound 8], the Ki in assay [1] amounted to 0.0231 nM. In addition, the concentration at half-maximal activity (AC50) in assay [2] is 34 nM.
The matching figures for `COc1nn(C)cc1C(=O)NS1(=O)=NC(=O)c2ccc3c(c2)N(C[C@@H]2CCO[C@H]2C(OC)/C=C/C[C@H](C)C1)C[C@@]1(CCCc2cc(Cl)ccc21)CO3` (single isomer, unassigned) [Compound 9]: 0.05 nM and 119 nM.
For the compound `COc1nn(C)cc1C(=O)NS1(=O)=NC(=O)c2ccc3c(c2)N(C[C@@H]2CCO[C@H]2C(OC)/C=C/C[C@H](C)C1)C[C@@]1(CCCc2cc(Cl)ccc21)CO3` (single isomer, unassigned) [Compound 10], the Ki in assay [1] came out at 0.401 nM. For the same compound, the concentration at half-maximal activity (AC50) in assay [2] was found to be 453 nM.
The matching figures for `COc1nn(C)cc1C(=O)NS1(=O)=NC(=O)c2ccc3c(c2)N(C[C@@H]2CCO[C@H]2C(OC)/C=C/C[C@H](C)C1)C[C@@]1(CCCc2cc(Cl)ccc21)CO3` (single isomer, unassigned) [Compound 11]: 0.94 nM and 1310 nM.
The matching figures for `COC1/C(F)=C/C[C@H](C)[C@@H](C)S(=O)(=O)NC(=O)c2cnc3c(n2)N(C[C@@H]2CCO[C@@H]12)C[C@@]1(CCCc2cc(Cl)ccc21)CO3` (single isomer, unassigned) [Compound 12]: 5.23 nM and 1220 nM.
For `COC1/C(F)=C/C[C@H](C)[C@@H](C)S(=O)(=O)NC(=O)c2cnc3c(n2)N(C[C@@H]2CCO[C@@H]12)C[C@@]1(CCCc2cc(Cl)ccc21)CO3` (single isomer, unassigned) [Compound 13], in that order: 35.5 nM and 15200 nM.
As to `C[C@@H]1[C@@H](C)C/C=C/C(CO)[C@@H]2OCC[C@H]2CN2C[C@@]3(CCCc4cc(Cl)ccc43)COc3ccc(cc32)C(=O)NS1(=O)=O` (single isomer, unassigned) [Compound 14], in assay [1], the Ki was 0.521 nM. In assay [2], the half-maximal activity concentration (AC50) came out at 1250 nM.
With `C[C@@H]1[C@@H](C)C/C=C/C(CO)[C@@H]2OCC[C@H]2CN2C[C@@]3(CCCc4cc(Cl)ccc43)COc3ccc(cc32)C(=O)NS1(=O)=O` (single isomer, unassigned) [Compound 15], the Ki in assay [1] came to 0.636 nM. For the same compound, the concentration at half-maximal activity (AC50) in assay [2] is 2920 nM.
In the case of `COCCN(CCOC)CC1(OC)/C(F)=C/C[C@H](C)[C@@H](C)S(=O)(=O)NC(=O)c2ccc3c(c2)N(C[C@@H]2CCO[C@H]21)C[C@@]1(CCCc2cc(Cl)ccc21)CO3` (single isomer, unassigned) [Compound 18], the Ki in assay [1] was 0.096 nM. In assay [2] (Homo sapiens, MOLP-8, 2 h), the AC50 was determined as 412 nM.
`C[C@@H]1[C@@H](C)C/C=C/C(O)[C@@H]2OCC[C@H]2CN2C[C@@]3(CCCc4cc(Cl)ccc43)COc3ccc(cc32)C(=O)NS1(=O)=O` (single isomer, unassigned) [Compound 19]: in assay [1], the Ki amounted to 0.717 nM. For the same compound, the AC50 in assay [2] (Homo sapiens, MOLP-8, 2 h) was determined as 752 nM.
Consider `C[C@@H]1[C@@H](C)C/C=C/C(OCCN2CCOCC2)[C@@H]2OCC[C@H]2CN2C[C@@]3(CCCc4cc(Cl)ccc43)COc3ccc(cc32)C(=O)NS1(=O)=O` (single isomer, unassigned) [Compound 20], for which the inhibition constant (Ki) in assay [1] stood at 0.223 nM. Besides, the half-maximal activity concentration (AC50) in assay [2] (Homo sapiens, MOLP-8, 2 h) is 616 nM.
Take `C[C@@H]1[C@@H](C)C/C=C(\F)C(O)(CC(=O)N(C)C)[C@@H]2OCC[C@H]2CN2C[C@@]3(CCCc4cc(Cl)ccc43)COc3ccc(cc32)C(=O)NS1(=O)=O` (single isomer, unassigned) [Compound 21]: in assay [1], the Ki amounted to 0.182 nM. In addition, the AC50 in assay [2] was found to be 436 nM.
For `C[C@@H]1[C@@H](C)C/C=C(\F)C(O)(CC(=O)N(C)C)[C@@H]2OCC[C@H]2CN2C[C@@]3(CCCc4cc(Cl)ccc43)COc3ccc(cc32)C(=O)NS1(=O)=O` (single isomer, unassigned) [Compound 22], in that order: 0.981 nM and 4830 nM.
Consider `COc1nn(C)cc1C(=O)NS1(=O)=NC(=O)c2ccc3c(c2)N(C[C@@H]2CCO[C@H]2C(OC)/C(F)=C/C[C@H](C)C1)C[C@@]1(CCCc2cc(Cl)ccc21)CO3` (single isomer, unassigned) [Compound 23], for which the Ki in assay [1] was 0.25 nM. The AC50 in assay [2] stood at 2420 nM.
For `COc1nn(C)cc1C(=O)NS1(=O)=NC(=O)c2ccc3c(c2)N(C[C@@H]2CCO[C@H]2C(OC)/C(F)=C/C[C@H](C)C1)C[C@@]1(CCCc2cc(Cl)ccc21)CO3` (single isomer, unassigned) [Compound 24], the Ki in assay [1] amounted to 0.011 nM. Besides, the AC50 in assay [2] came out at 44 nM.
In the case of `COc1nn(C)cc1C(=O)NS1(=O)=NC(=O)c2ccc3c(c2)N(C[C@@H]2CCO[C@H]2C(OC)/C(F)=C/C[C@H](C)C1)C[C@@]1(CCCc2cc(Cl)ccc21)CO3` (single isomer, unassigned) [Compound 25], the Ki in assay [1] is 0.025 nM. For the same compound, the AC50 in assay [2] was 486 nM.
For the compound `CO[C@@]1(CN2CCN3CCOC[C@@H]3C2)/C(F)=C/C[C@H](C)[C@@H](C)S(=O)(=O)NC(=O)c2ccc3c(c2)N(C[C@@H]2CCO[C@H]21)C[C@@]1(CCCc2cc(Cl)ccc21)CO3` [Compound 6], in assay [2] (Homo sapiens, MOLP-8, 2 h), the AC50 was determined as 69 nM.
Same read-out and setting: the value for `CO[C@]1(CN2CCN3CCOC[C@@H]3C2)/C(F)=C/C[C@H](C)[C@@H](C)S(=O)(=O)NC(=O)c2ccc3c(c2)N(C[C@@H]2CCO[C@H]21)C[C@@]1(CCCc2cc(Cl)ccc21)CO3` [Compound 7] was 88 nM.
